Measurements from paper PMC12207370, “Macrocyclic Peptide Probes for Immunomodulatory Protein CD59: Potent Modulators of Bacterial Toxin Activity and Antibody‐Dependent Cytotoxicity” (Angewandte Chemie (International Ed. in English), 2025).
Numbered stars: 1 amine (or outer) side, 2 acyl side, 3 side chain; on linkers, the order of the positions; unused ones are H or OH. Bridge positions count the residues as written; N and C are the ends. Square brackets hold non-standard residues; d marks the D form. Peptide text beside a SMILES is read from it. I, II: the chains in the order shown. CO(CH2CH2O)5CH2CH2CO = O=C(CCOCCOCCOCCOCCOCCC(=O)[*:2])[*:1]

Tested on: SK-BR-3 cells
Assay: ILY lysis assay (Sytox green, IncuCyte) in SK-BR-3 cells
Type: cell-based, human
Description: Figure 5 CP‐06 and optimized analogues control CD59 activity in cellular assays. a) ILY lysis assay. SK‐BR‐3 cells were treated with CP‐06 (n = 4) or CP‐06[W3A] (n = 2), then with Sytox green dye and ILY ([…]). The plate was imaged immediately with the IncuCyte S3 Live Cell Analysis System and then every hour up to 14 h. The linear phase of lysis was taken from each well, and linear regression was performed to extract individual slope values, which were then normalized to maximum lysis rate (Sytox and ILY) vs. 0% lysis (Sytox only) within each plate. […] Human erythrocytes were sensitized with 1% w/v anti‐human erythrocyte Ab with 5% v/v human serum in the presence of a serial dilution of CP‐06C18 (black bars) or CP‐06scrmb‐C18 (red bars) Percent lysis enhancement was calculated by normalization to 0% enhancement (buffer well) and plotted as the mean of three biological replicates ± SEM.
Determination of optimal ILY concentration: 20,000 SK-BR-3 cells were seeded in a 96-well plate (Grenier, 655180) 24 h before treatment. […] Any bubbles were removed by a de-bubbler and the plate was immediately transferred to IncuCyte® S3 Live Cell Analysis System where each well was imaged 4 times at 10 × magnification with phase contrast and green fluorescence (λex 440–480 nm, λem = 504–544 nm) every hour for 24 h. […]

For CC(C)[C@@H]1NC(=O)[C@H](CO)NC(=O)[C@H](CO)NC(=O)[C@H](CCCNC(=N)N)NC(=O)[C@H](CC(N)=O)NC(=O)CNC(=O)[C@H](Cc2c[nH]c3ccccc23)NC(=O)[C@H]([C@@H](C)O)NC(=O)[C@H](Cc2c[nH]c3ccccc23)NC(=O)[C@H](CO)NC(=O)[C@@H](Cc2ccc(O)cc2)NC(=O)CSC[C@@H](C(=O)NCC(=O)N[C@@H](CCCCNC(=O)CCOCCOCCOCCOCCOCCC(=O)NCCCC[C@H](NC(=O)CNC(=O)[C@@H]2CSCC(=O)N[C@H](Cc3ccc(O)cc3)C(=O)N[C@@H](CO)C(=O)N[C@@H](Cc3c[nH]c4ccccc34)C(=O)N[C@@H]([C@@H](C)O)C(=O)N[C@@H](Cc3c[nH]c4ccccc34)C(=O)NCC(=O)N[C@@H](CC(N)=O)C(=O)N[C@@H](CCCNC(=N)N)C(=O)N[C@@H](CO)C(=O)N[C@@H](CO)C(=O)N[C@@H](C(C)C)C(=O)N[C@@H](CCCNC(=N)N)C(=O)NCC(=O)N2)C(=O)NCC(N)=O)C(=O)NCC(N)=O)NC(=O)CNC(=O)[C@H](CCCNC(=N)N)NC1=O [CP-06dimer] (I: {CH2CO}-[dY]SWTWGNRSSVRGCGKG-NH2 / II: {CH2CO}-[dY]SWTWGNRSSVRGCGKG-NH2; linker I:16-II:16 via CO(CH2CH2O)5CH2CH2CO; thioether I:N-I:14, II:N-II:14), the “inhibition of ILY lysis (in words)” value was “completely inhibits ILY lysis”.
